Results on one sequence are retold here after patent publication US6887713B2, “Bioactive chip mass spectrometry” (Intrinsic Bioprobes, Inc., priority 2000, dated 2005).

This test deals with streptavidin (Streptomyces avidinii, UniProt P22629). Particulars: mixture of 10.0 μM Pep K and 10.0 μM Pep R, 60 s at 20 μl/min, then ~15 s running buffer; immobilized streptavidin.
Chain of streptavidin (P22629 25-183, species assumed): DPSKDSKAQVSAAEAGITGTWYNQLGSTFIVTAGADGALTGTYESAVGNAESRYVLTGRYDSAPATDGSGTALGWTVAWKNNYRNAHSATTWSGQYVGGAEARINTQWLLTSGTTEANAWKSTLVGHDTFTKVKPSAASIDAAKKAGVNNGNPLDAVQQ

Description: A bioactive chip BC containing streptavidin-derivatized separation site SS was exposed for 60 s (at a flow rate of 20 μl/min) to a mixture containing 10.0 μM Pep K and 10.0 μM Pep R, after which a ˜15 s exposure to the running buffer followed. The separation site SS on the bioactive chip BC was then MALDI-TOF MS analyzed.
The fitting parameters are listed in the figure and were used with starting concentrations of [Pep K]=7 uM; [Pep K(ox)]=3 uM; and [Pep R & Pep R(ox)]=10 uM. A criterion was used in which the relative quantities of the individual species at the end of the run corresponded to the relative quantities estimated from the mass spectrum taken from the surface of the separation site SS.

Consider SGTSFHPQWIMVGRVATNSP [PepR], for which the “retention by / affinity for streptavidin (change in MALDI-TOF ion signal intensity ratio before vs after interaction)” value is “preferential retention”.
